Laboratory results: patent US7132286B2, “Method for neural stem cell differentiation using valproate” (Psychiatric Genomics, Inc., priority 2001, dated 2006)

B1: NT-3: Neurotrophin-3 (R & D Systems) (protein, UniProt P20783 139-257, looked up)
Neurotrophin-3: YAEHKSHRGEYSVCDSESLWVTDKSSAIDIRGHQVTVLGEIKTGNSPVKQYFYETRCKEARPVKNGCRGIDDKHWNSQCKTSQTYVRALTSENNKLVGWRWIRIDTSCVCALSRKIGRT
B2: BDNF: brain-derived neurotrophic factor (R & D Systems), known promoter of neural stem cell differentiation (protein, UniProt P23560 19-247, looked up)
Neurotrophic factor BDNF …: APMKEANIRGQGGLAYPGVRTHGTLESVNGPKAGSRGLTSLADTFEHVIEELLDEDQKVRPNEENNKDADLYTSRVMLSSQVPLEPPLLFLLEEYKNYLDAANMSMRVRRHSDPARRGELSVCDSISEWVTAADKKTAVDMSGGTVTVLEKVPVSKGQLKQYFYETKCNPMGYTKEGCRGIDKRHWNSQCRTTQSYVRALTMDSKKRIGWRFIRIDTSCVCTLTIKRGR

Tests used:
[1] = literature; cited from earlier work
[2] = literature; cited from earlier work; remark: listed apart in the source
rat cortical stem cells [3] = experiment: Neuronal differentiation of rat cortical stem cells (β-tubulin III immunofluorescence, cell counting); assay type: cell-based; conditions: rat cortical stem cells; for effect on neuronal differentiation (percentage of β-tubulin-III expressing cells) in words: 6 days, vs control; for percentage of β-tubulin III expressing neurons (mean+SD): daily treatment 6 days, 10 ng/ml BDNF, 20 ng/ml NT-3, untreated control 6.2+1.8%
Description: Isolation of cortical and striatal stem cells. Timed pregnant Sprague Dawley rats were obtained from Taconic at embryonic age E14–E15 were sacrificed by inhalation of excess carbon dioxide. The abdomen of the rat was cleaned with 70% ethanol and the uterus was removed quickly and aseptically on the bench top. The uterus was placed in ice cold HBSS (GIBCO Cat. #20012-027) in a 10 cm petridish. After rinsing the uterus in PBS, embryos were removed from the uterus, rinsed in HBSS and collected in cold HBSS (buffered with HEPES and sodium bicarbonate) in a 10 cm petridish and placed on ice.
Plating, expansion and passaging of cortical and striatal stem cells. A generous amount of the triturated cell suspension was left in the original 15 ml tube to avoid fibroblast contamination in cultures. About 4–5 ml of the 6 ml of cells suspension was used for plating. Cells were plated at a concentration of 1.3×10^3 cells to 3.0×10^3 per cm^2 in 100 mm dish. This culture is designated P0 (passage 0).
(§1) Following plating cells were expanded for about 3–4 days (Passage 1, P1). Cells were treated daily with 10 ng/ml bFGF. The cultures were never permitted to reach more than 70% confluency. Cultures were then passaged as follows: 10 ml of HBSS without Ca^2+ and Mg^2+ was added to each 100 mm dish and the cells incubated at 37° C. for 5–15 minutes, or until sufficient numbers of the stem cells were rounded up. It is not expected that all cells in the culture will round up as there are several cell types in the culture at P0. The pH of the HBSS should be neutral at all times during this incubation. Cells were then removed from the dish by pipetting with a 5 ml pipette, and collected in a 15 or 50 ml conical tube, and centrifuged at 1000 g for 5 minutes. Cells were gently re-suspended in medium, counted, and plated at a density of 1×10^6 cells in 10 cm dishes and expanded for about 2 days in bFGF (Passage 1, P1). At that time the cells were passaged as described and plated onto pre-coated poly-L-ornithine/fibronectin vessels at concentrations indicated below for each experiment. Cells were treated with bFGF for 2 additional days. Before each treatment the bFGF was removed from the cells by washing twice with DMEM/F 12 to induce cell differentiation. For neurite outgrowth experiments, cells were seeded at 5×10^3 cells/well in 24-well plates and treated immediately.
(§2) Drug treatment. For immunofluorescence and Western analysis, cells were treated daily with either 0.5 mM of valproate (Sigma), 10 ng/ml of BDNF (R & D Systems), 20 ng/ml of NT-3 (R & D Systems), 1 nM 9cis retinoic acid (Sigma) or a dilution of NCM for 6 or 7 days. In some experiments valproate was also added with NCM and/or 9cis RA for 7 days. For human stem cell experiments, valproate (0.5 mM) or BDNF (25 ng/ml) was added for 9 days. For neurite outgrowth experiments, cells were treated for 1 day with 0.5 mM valproate or 50 ng/ml of BDNF. Where applicable, medium was changed every 2 days. After about 5–10 days, preferably on day 6 (i.e., after 6 days of drug exposure) the cells were fixed with a 4% solution of para-formaldehyde (PFA) in PBS, prepared as follows:
Immunofluorescent staining and visualization. Cells were plated at 20,000 cells/well in poly-L-ornithine/fibronectin (1 mg/ml) coated 24-well plates. After fixation, the PBS was aspirated from the fixed cells and the cells were treated with blocking solution (10% normal goat serum-NGS-Jackson Labs), 0.3% Triton-Sigma, in PBS) to saturate non-specific sites and permeabilize the cells. […]

[4] = tested on: human striatal stem cells (line 161); experiment: Neuronal differentiation of human striatal stem cells (β tubulin III neurons, total cells); assay type: cell-based; conditions: 9 days, 0.5 mM valproate, BDNF 25 ng/ml, untreated control 40%
Protocol: Expansion and differentiation of striatal human stem cells. Human stem cells were provided from ReNeuron Inc. (U.K.). Striatum was obtained after 6 to 12 weeks of gestation from routine legal abortion. Cell line was provided by ReNeuron at passage 16. The stem cells were expanded in untreated 25 cm^2 tissue culture flasks (Nunc, USA) in the presence of 20 ng/ml and 10 ng/ml of human recombinant EGF and bFGF respectively, in NSA basal serum-free medium (Euroclone, U.K). Fresh medium and growth factors were added every 3 days. In these conditions stem cells were growing as floating neurospheres. After 4 weeks, the neurospheres were harvested, treated with a mild papain treatment in HBSS and dissociated into a single cell suspension. Cells were counted and viability was estimated by trypan blue exclusion method. Cells were differentiated by growth factors removal. The cells were plated in NSA medium at 20,000 cells/well on LabTek permanox culture slides of 8 wells precoated with laminin (1 μg/ml). Cells were treated with valproate and BDNF for 9 days at 37° C. and a saturated humidified atmosphere of 5% CO2, 1% O2 and 94% N2. Fresh medium and re-treatment with factors was performed every 3 days.
as §2
Immunofluorescent staining and visualization. Cells were plated at 20,000 cells/well in poly-L-ornithine/fibronectin (1 mg/ml) coated 24-well plates. […]
For counting, three to five different fields of interest at magnification 10× or 20× were chosen randomly. For immunofluorescence, 3 different black and white pictures were taken by field of interest with a digital camera CoolSnap Fx (Princeton) corresponding to the exposure of Cy2, Cy3 and Hoechst fluorescence. […] The percentage of neurons, astrocytes and GABAergic cells was determined by comparing the number of cells immunopositive for β-tubulin III, GFAP and GABA to the number of bis-benzamide stained nuclei (i.e., total cell number). […]

rat cortical stem cells [5] = experiment: Neurite outgrowth of neurons derived from rat cortical stem cells (ArrayScan neurite outgrowth index); assay type: cell-based; conditions: 1 day; 0.5 mM valproate, 50 ng/ml BDNF; control 35.1+0.3
Protocol: as §1, with “At that time the cells were passaged as described and plated onto pre-coated poly-L-ornithine/fibronectin vessels at concentrations indicated below for each experiment. Cells were treated with bFGF for 2 additional days. Before each treatment the bFGF was removed from the cells by washing twice with DMEM/F 12 to induce cell differentiation. For neurite outgrowth experiments, cells were seeded at 5×10^3 cells/well in 24-well plates and treated immediately.” left out
For analysis of neurite outgrowth, digital images were taken with an ArrayScan HCS System (Cellomics, Pa.) of 100 cells/well treated with valproate (0.5 mM) and BDNF (50 ng/ml) for 1 day. […] Neurite outgrowth index is defined as the percentage of cells whose neurites total more than 20 μm in length, and is calculated using Cellomics' Neurite Outgrowth application.

| Molecule | effect on proliferation and differentiation [1] | teratogenic activity [2] | other results |
| --- | --- | --- | --- |
| CCCCC(CCCC)C(=O)O [2-butylhexnoic acid] | inhibit proliferation and enhance differentiation | in vivo teratogenic activity |  |
| CCC=C(CCC)C(=O)O [2-en-valproate] | have not been shown to affect differentiation | Non-teratogenic |  |
| CCCCC(CC)C(=O)O (stereo not drawn) [2-ethylhexanoic acid] | inhibit proliferation and enhance differentiation | in vivo teratogenic activity |  |
| CCCCC(CCC)C(=O)O (stereo not drawn) [2-propylhexanoic acid] | inhibit proliferation and enhance differentiation | in vivo teratogenic activity |  |
| CCCC(CC(C)C)C(=O)O (stereo not drawn) [4 methyl-valproate] | have not been shown to affect differentiation | Non-teratogenic |  |
| CC1=C(/C=C/C(C)=C\C=C\C(C)=C\C(=O)O)C(C)(C)CCC1 [9-cis RA, 9-cis retinoic acid] |  |  | neuronal differentiation compared to control, in words (rat cortical stem cells [3]; daily treatment 7 days, 0.5 mM valproate, 0.5× NCM, 1 nM 9-cis RA): increased the neuronal differentiation |
| C#CC[C@H](CCC)C(=O)O [(s)-4-yn-valproate] | inhibit proliferation and enhance differentiation | in vivo teratogenic activity |  |
| C#CCC(CCC)C(=O)O (stereo not drawn) [R-4-yn-valproate] | have not been shown to affect differentiation | Non-teratogenic |  |
| B1 |  |  | effect on neuronal differentiation (percentage of β-tubulin-III expressing cells) in words (rat cortical stem cells [3]): didn't have any effect; percentage of β-tubulin III expressing neurons (mean+SD) (rat cortical stem cells [3]; 0.5 mM valproate): 8+1% |
| B2 |  |  | effect on neuronal differentiation (percentage of β-tubulin-III expressing cells) in words (rat cortical stem cells [3]): increased the percentage of β-tubulin-III expressing cells over control but was less effective than valproate; percentage of β-tubulin III expressing neurons (mean+SD) (rat cortical stem cells [3]; 0.5 mM valproate): 12.7+2%; neuronal differentiation [4]: 58%; neurite index (percentage of cells whose neurites total more than 20 μm in length) (rat cortical stem cells [5]): 38.3+1 |
